Literature values as cited in patent US20130331402A1, “DOSING REGIMEN ASSOCIATED WITH LONG-ACTING INJECTABLE PALIPERIDONE ESTERS” (Janssen Pharmaceutica NV, priority 2009, published 2013).

Conditions: depot intramuscular antipsychotics

CCCCCCCCCC(=O)OC1(c2ccc(Cl)cc2)CCN(CCCC(=O)c2ccc(F)cc2)CC1 [Haloperidol decanoate] and CCCCCCCCCC(=O)OCCN1CCN(CC/C=C2\c3ccccc3Sc3ccc(Cl)cc32)CC1 [Clopenthixol decanoate] are within 1.5-fold of each other in “t1/2 (apparent terminal half-life after multiple dosing)” value: 504 h for the first, 456 h for the second.

Going from Cc1cc2c(s1)Nc1ccccc1N=C2N1CCN(C)CC1.O.O=C(O)c1cc2ccccc2c(Cc2c(O)c(C(=O)O)cc3ccccc23)c1O [Olanzapine pamoate] to O=C1NCN(c2ccccc2)C12CCN(CCCC(c1ccc(F)cc1)c1ccc(F)cc1)CC2 [Fluspirilene], the “t1/2 (apparent terminal half-life after multiple dosing)” value falls from 720 h to 170 h (4.2-fold).

First: CCCCCCCCCCCCCCCC(=O)OCCC1CCN(CCCN2c3ccccc3Sc3ccc(S(=O)(=O)N(C)C)cc32)CC1 [Pipothiazine palmitate]
Second: CCCCCCCCCC(=O)OCCN1CCN(CCCN2c3ccccc3Sc3ccc(C(F)(F)F)cc32)CC1 [Fluphenazine decanoate]
The “t1/2 (apparent terminal half-life after multiple dosing)” value of the first is higher: 360 to 384 h for the first, 336 h for the second.

CCCCCCC(=O)OCCN1CCN(CCCN2c3ccccc3Sc3ccc(C(F)(F)F)cc32)CC1 [Fluphenazine enanthate] and CCCCCCC(=O)OCCN1CCN(CCCN2c3ccccc3Sc3ccc(Cl)cc32)CC1 [Perphenazine enanthate] cannot be ordered by “t1/2 (apparent terminal half-life after multiple dosing)” value: 96 h for the first, 96 to 140 h for the second.

CCCCCCCCCC(=O)OCCN1CCN(CC/C=C2/c3ccccc3Sc3ccc(Cl)cc32)CC1 [Zuclopenthixol decanoate] and CCCCCCCCCC(=O)OCCN1CCN(CC/C=C2\c3ccccc3Sc3ccc(C(F)(F)F)cc32)CC1 [Flupenthixol decanoate] are within 1.5-fold of each other in “t1/2 (apparent terminal half-life after multiple dosing)” value: 456 h for the first, 408 h for the second.

Conditions: oral atypical antipsychotics, Table 2

First: OCCOCCN1CCN(C2=Nc3ccccc3Sc3ccccc32)CC1 [Quetiapine]
Second: CN1CCN(C2=Nc3cc(Cl)ccc3Nc3ccccc32)CC1 [Clozapine]
The “Terminal Half-life” value of the first is lower: 6 h for the first, 9 to 17 h for the second.

First: O=C1Cc2cc(CCN3CCN(c4nsc5ccccc45)CC3)c(Cl)cc2N1 [Ziprasidone]
Second: O=C1CCc2ccc(OCCCCN3CCN(c4cccc(Cl)c4Cl)CC3)cc2N1 [Aripiprazole]
The “Terminal Half-life” value of the first is lower: 8 to 10 h for the first, 47 to 68 h for the second.

Going from Cc1nc2n(c(=O)c1CCN1CCC(c3noc4cc(F)ccc34)CC1)CCCC2O (stereo not drawn) [Paliperidone (9-hydroxy-risperidone), Paliperidone] to O=C1NCCN1CCN1CCC(c2cn(-c3ccc(F)cc3)c3ccc(Cl)cc23)CC1 [Sertindole], the “Terminal Half-life” value rises from 25 h to 70 h (2.8-fold).

For CCN1CCCC1CNC(=O)c1cc(S(=O)(=O)CC)c(N)cc1OC (stereo not drawn) [Amisulpride], the “Terminal Half-life” value is given as 12 h.

Same assay, conditions: oral typical antipsychotics, Table 1

First: CSc1ccc2c(c1)N(CCC1CCCCN1C)c1ccccc1S2 (stereo not drawn) [Thioridazine]
Second: CN1CCN(CCCN2c3ccccc3Sc3ccc(Cl)cc32)CC1 [Prochlorperazine]
The “Terminal Half-life” value of the first is higher: 9 to 30 h for the first, 4 to 8 h for the second.

CN1CCN(CC/C=C2/c3ccccc3Sc3ccc(S(=O)(=O)N(C)C)cc32)CC1 [Thiothixene] and OCCN1CCN(CC/C=C2/c3ccccc3Sc3ccc(C(F)(F)F)cc32)CC1 [Flupenthixol] cannot be ordered by “Terminal Half-life” value: 34 h for the first, 22 to 36 h for the second.

CN1CCN(CCCN2c3ccccc3Sc3ccc(C(F)(F)F)cc32)CC1 [Trifluoperazine] and OCCN1CCN(CCCN2c3ccccc3Sc3ccc(C(F)(F)F)cc32)CC1 [Fluphenazine] cannot be ordered by “Terminal Half-life” value: 10 to 20 h for the first, 14 to 24 h for the second.

First: CCc1c(C)[nH]c2c1C(=O)C(CN1CCOCC1)CC2 (stereo not drawn) [Molindone]
Second: O=c1[nH]c2ccccc2n1C1CCN(CCCC(c2ccc(F)cc2)c2ccc(F)cc2)CC1 [Pimozide]
The “Terminal Half-life” value of the first is lower: 1.5 h for the first, 48 to 72 h for the second.

First: CN1CCN(C2=Nc3ccccc3Oc3ccc(Cl)cc32)CC1 [Loxapine]
Second: OCCN1CCN(CCCN2c3ccccc3Sc3ccc(Cl)cc32)CC1 [Perphenazine]
The “Terminal Half-life” value of the first is lower: 4 h for the first, 8 to 21 h for the second.

CN(C)CCCN1c2ccccc2Sc2ccc(Cl)cc21 [Chlorpromazine] and O=C(CCCN1CCC(O)(c2ccc(Cl)cc2)CC1)c1ccc(F)cc1 [Haloperidol] cannot be ordered by “Terminal Half-life” value: 8 to 35 h for the first, 12 to 36 h for the second.

Conditions: background statement

For CCCCCCCCCCCCCCCC(=O)OC1CCCn2c1nc(C)c(CCN1CCC(c3noc4cc(F)ccc34)CC1)c2=O (racemic) [paliperidone palmitate, (±)-3-[2-[4-(6-fluoro-1,2-benzisoxazol-3-yl)-1-piperidinyl]ethyl]-6,7,8,9-tetrahydro-2-methyl-4-oxo-4H-pyrido[1,2-c]pyrimidin-9-yl hexadecanoate], the water solubility is listed as “extreme low water solubility”.
